Reference: patent publication USRE37919E1, “Recombinant DNA method for production of parathyroid hormone” (The General Hospital Corporation, priority 1989, dated 2002)
Like-named read-outs stand apart in the source and are kept apart here.

Key:
[1] = tested on: opossum kidney cells; assay: Binding to opossum kidney cells; details: FIG. 3
Experimental: (§1) The recombinant peptide produced as described in Example 1 above was tested for it binding to two cells types.

[2] = tested on: UMR rat osteosarcoma cell line; assay: Binding to UMR rat osteosarcoma cell line; details: FIG. 4
Experimental: as §1

[3] = tested on: opossum kidney cells; assay type: cell-based
From the text: (§2) Therefore, the recombinant peptide had PTH biological activity which is largely indistinguishable from that of a known active fragment.

[4] = tested on: UMR cells; assay: Cyclic AMP response of UMR tumor cells; assay type: cell-based, rat; details: FIG. 6, read-out: EC50 of cyclic AMP stimulation
From the text: as §2

[5] = target: T1, PTH receptors (Homo sapiens, UniProt Q03431); details: literature; cited from earlier work
T1 sequence (Q03431 27-593): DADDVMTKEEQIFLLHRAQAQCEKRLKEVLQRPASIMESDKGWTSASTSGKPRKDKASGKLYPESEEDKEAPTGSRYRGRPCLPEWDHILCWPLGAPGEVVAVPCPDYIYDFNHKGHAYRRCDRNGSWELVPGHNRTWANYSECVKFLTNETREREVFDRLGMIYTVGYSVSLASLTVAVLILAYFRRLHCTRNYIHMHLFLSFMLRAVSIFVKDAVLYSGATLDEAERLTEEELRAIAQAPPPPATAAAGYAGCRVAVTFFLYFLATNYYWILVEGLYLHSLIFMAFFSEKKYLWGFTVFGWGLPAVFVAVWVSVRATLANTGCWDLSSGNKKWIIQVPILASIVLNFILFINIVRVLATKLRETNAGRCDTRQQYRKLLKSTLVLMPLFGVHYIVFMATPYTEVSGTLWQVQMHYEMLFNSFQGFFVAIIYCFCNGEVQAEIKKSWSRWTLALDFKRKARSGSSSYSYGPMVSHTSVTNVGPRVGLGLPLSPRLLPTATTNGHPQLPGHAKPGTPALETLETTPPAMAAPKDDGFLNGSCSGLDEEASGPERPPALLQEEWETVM

Molecule	half-maximal binding [1]	half-maximum value of binding [2]	EC50 ([3]; opossum kidney cells, FIG. 5, read-out: EC50 of cyclic AMP stimulation)	EC50 [4]	PTH antagonist activity in vitro [5]	EC50 [3]
human parathyroid hormone 1-84 [recombinant hPTH(1-84)]	about 3 nM	about 10 nM	~10 nM	~3 nM	–	–
PTH (3-34): synthetic analog of bovine PTH, recognized PTH antagonist (SEIQFMHNLGKHLSSMERVEWLRKKLQDVHNF; Parathyroid hormone; UniProt P01268 34-65, looked up, fragment)	–	–	–	–	potent PTH antagonist	–
CC[C@H](C)[C@H](NC(=O)[C@H](CCC(=O)O)NC(=O)[C@H](CO)NC(=O)[C@@H](NC(=O)[C@@H](N)CO)C(C)C)C(=O)N[C@@H](CCC(N)=O)C(=O)N[C@@H](CC(C)C)C(=O)N[C@@H](CCSC)C(=O)N[C@@H](Cc1c[nH]cn1)C(=O)N[C@@H](CC(N)=O)C(=O)N[C@@H](CC(C)C)C(=O)NCC(=O)N[C@@H](CCCCN)C(=O)N[C@@H](Cc1c[nH]cn1)C(=O)N[C@@H](CC(C)C)C(=O)N[C@@H](CC(N)=O)C(=O)N[C@@H](CO)C(=O)N[C@@H](CCSC)C(=O)N[C@@H](CCC(=O)O)C(=O)N[C@@H](CCCNC(=N)N)C(=O)N[C@H](C(=O)N[C@@H](CCC(=O)O)C(=O)N[C@@H](Cc1c[nH]c2ccccc12)C(=O)N[C@@H](CC(C)C)C(=O)N[C@@H](CCCNC(=N)N)C(=O)N[C@@H](CCCCN)C(=O)N[C@@H](CCCCN)C(=O)N[C@@H](CC(C)C)C(=O)N[C@@H](CCC(N)=O)C(=O)N[C@@H](CC(=O)O)C(=O)N[C@H](C(=O)N[C@@H](Cc1c[nH]cn1)C(=O)N[C@@H](CC(N)=O)C(=O)N[C@@H](Cc1ccccc1)C(=O)O)C(C)C)C(C)C [synthetic PTH(1-34)]	about 1 nM	about 2 nM	–	~0.1 nM	–	~4 nM
